Results as given in BigSolDB 2.1.

SMILES: Nc1cc(Cl)nnc1Cl
- solubility (mole fraction) (in 1,4-dioxane, 289.15 K): 0.00294
- solubility (mole fraction) (in 1,4-dioxane, 293.65 K): 0.00365
- solubility (mole fraction) (in 1,4-dioxane, 298.15 K): 0.00427
- solubility (mole fraction) (in 1,4-dioxane, 303.15 K): 0.00556
- solubility (mole fraction) (in 1,4-dioxane, 308.15 K): 0.0066
- solubility (mole fraction) (in 1,4-dioxane, 313.15 K): 0.00811
- solubility (mole fraction) (in 1,4-dioxane, 318.15 K): 0.00982
- solubility (mole fraction) (in 1,4-dioxane, 323.15 K): 0.0121
- solubility (mole fraction) (in THF, 290.05 K): 0.0443
- solubility (mole fraction) (in THF, 295.15 K): 0.0484
- solubility (mole fraction) (in THF, 299.15 K): 0.0517
- solubility (mole fraction) (in THF, 303.15 K): 0.0556
- solubility (mole fraction) (in THF, 305.15 K): 0.057
- solubility (mole fraction) (in THF, 308.15 K): 0.0604
- solubility (mole fraction) (in THF, 313.65 K): 0.0648
- solubility (mole fraction) (in THF, 318.15 K): 0.0688
- solubility (mole fraction) (in THF, 323.15 K): 0.0752
- solubility (mole fraction) (in acetone, 295.65 K): 0.0244
- solubility (mole fraction) (in acetone, 298.15 K): 0.0258
- solubility (mole fraction) (in acetone, 300.65 K): 0.0276
- solubility (mole fraction) (in acetone, 303.15 K): 0.0293
- solubility (mole fraction) (in acetone, 305.65 K): 0.0311
- solubility (mole fraction) (in acetone, 308.15 K): 0.0327
- solubility (mole fraction) (in acetone, 310.65 K): 0.0342
- solubility (mole fraction) (in acetone, 313.15 K): 0.036
- solubility (mole fraction) (in acetone, 315.65 K): 0.0377
- solubility (mole fraction) (in acetone, 318.15 K): 0.0393
- solubility (mole fraction) (in acetone, 320.65 K): 0.041
- solubility (mole fraction) (in acetone, 323.15 K): 0.0427
- solubility (mole fraction) (in dichloromethane, 295.15 K): 7.41e-05
- solubility (mole fraction) (in dichloromethane, 297.15 K): 0.000111
- solubility (mole fraction) (in dichloromethane, 299.15 K): 0.000174
- solubility (mole fraction) (in dichloromethane, 301.15 K): 0.000262
- solubility (mole fraction) (in dichloromethane, 303.15 K): 0.000387
- solubility (mole fraction) (in dichloromethane, 305.15 K): 0.000543
- solubility (mole fraction) (in dichloromethane, 307.15 K): 0.000811
- solubility (mole fraction) (in dichloromethane, 309.15 K): 0.00117
- solubility (mole fraction) (in ethyl acetate, 295.65 K): 0.00111
- solubility (mole fraction) (in ethyl acetate, 298.15 K): 0.00134
- solubility (mole fraction) (in ethyl acetate, 300.65 K): 0.00159
- solubility (mole fraction) (in ethyl acetate, 303.15 K): 0.00192
- solubility (mole fraction) (in ethyl acetate, 305.65 K): 0.00235
- solubility (mole fraction) (in ethyl acetate, 308.15 K): 0.00303
- solubility (mole fraction) (in ethyl acetate, 310.65 K): 0.00371
- solubility (mole fraction) (in ethyl acetate, 313.15 K): 0.0049
- solubility (mole fraction) (in ethyl acetate, 315.65 K): 0.00577
- solubility (mole fraction) (in methanol, 295.65 K): 0.0142
- solubility (mole fraction) (in methanol, 298.15 K): 0.0153
- solubility (mole fraction) (in methanol, 300.65 K): 0.0161
- solubility (mole fraction) (in methanol, 303.15 K): 0.0169
- solubility (mole fraction) (in methanol, 305.65 K): 0.0178
- solubility (mole fraction) (in methanol, 308.15 K): 0.0189
- solubility (mole fraction) (in methanol, 310.65 K): 0.0201
- solubility (mole fraction) (in methanol, 313.15 K): 0.0214
- solubility (mole fraction) (in methanol, 315.65 K): 0.0229
